Measured values published in patent US4645779A, “Dialkylaminoalkoxybenzylalcohol derivatives, process for their preparation and pharmaceutical compositions containing them” (Richter Gedeon Vegyeszeti Gyar Rt, priority 1982, dated 1987).

Experiments:
[1] = Acute toxicity, single oral dose, 14 days observation; assay type: in vivo, rat; details: rat, in vivo, po, 500 mg./kg. p.o., n=10, read-out: Perished animals (%)
Protocol: (§1) The acute toxicity of the compounds provided by the invention was determined on Wistar rats of both sexes, each weighing 160 to 180 g., which had been treated with a single 500 mg./kg. dose of the test compounds, orally. […] In Table 3 the percentage of the perished animals is given.

[2] = system: Hann.-Wistar rats; assay: Effect on ethanolic narcosis period (righting reflex); assay type: in vivo, rat; details: 1 h before ethanol 3.5 g./kg. i.p., control = 100 ± 4.0, n=10
Protocol: The effect of the compounds according to the invention on ethanolic narcosis period was tested on Hann.-Wistar rats of both sexes, weighing 160 to 180 g. each. The animals were fasted for 16 hours prior to treatment. Groups of ten were then treated with various doses of the compounds of the formula (I) orally. One hour after treatment the animals were given a 3.5 g./kg. dose of ethanol, intraperitoneally. The narcosis period of the animals was measured from the elapse of the righting reflex until a spontaneous correction of the body position. The average of the narcosis period and the standard error were calculated, and the results are given in percentage of the control in Table 1. Abbreviations: x±S.E.=means value ± standard error n=number of animals The control group was treated with a placebo and a […]. dose of ethanol. Narcosis period of the control: 88.5±3.54x±S.E. minutes

[3] = system: BALB/c mice; assay: Effect on ethanolic locomotoric hyperactivity / locomotor activity (Animex BSE motimeter); assay type: in vivo, mouse; details: n=15
Protocol: The effect of the compounds provided by the invention on ethanolic locomotoric hyperactivity was tested on BALB/c mice of both sexes, each weighing 16 to 18 g. The test materials were administered to groups of 15 in a 40 mg./kg. oral dose, one hour before administering a placebo orally or a 2 g./kg. dose of ethanol intraperitoneally. The control animals were treated with a placebo. The locomotor activity of the animals was measured for two hours, using an Animex BSE motimeter. The results are shown as a Table 2, in percentage of the control.
°Control (treated with placebo): ^-x ± S.E. = 3118.3 ±
305.6 total motion/2 hours

[4] = system: Wistar rats; assay: Acute toxicity, single oral dose, 14 days observation; assay type: in vivo, rat; details: 500 mg./kg. p.o., n=10
Protocol: as §1

[5] = in vivo; cited from earlier work
[6] = in vivo; cited from earlier work; remark: listed apart in the source
[7] = system: mice; details: cited from earlier work

Structure (SMILES): CCCN(CCC)CCCOc1ccc(C(O)(CC)c2ccccc2OC)cc1 (stereo not drawn) [A, α-ethyl-α-(2-methoxyphenyl)-4-[3-(di-n-propylamino)-propoxy]-benzylalcohol]
- mortality at 336 h [1]: 0%
- Ethanolic narcosis period, control ± S.E. % ([2]; 5.0 mg./kg. orally): 60 ± 10.1%
- Ethanolic narcosis period, control ± S.E. % ([2]; 10.0 mg./kg. orally): 50 ± 6.9%

Structure (SMILES): CCCN(CCC)CCCOc1ccc(C(O)(CC)c2cccc(Cl)c2)cc1 (stereo not drawn) [B, α-ethyl-α-(3-chlorophenyl)-4-[3-(di-n-propylamino)-propoxy]-benzylalcohol]
- Locomotor activity total motion/2 hour (%) ([3]; B + ethanol 2000 mg./kg. i.p., 40 mg./kg. oral 1 h before, control = 100 ± 9.8, ethanol + placebo = 170 ± 11.8): 70 ± 8.4%
- Locomotor activity total motion/2 hour (%) ([3]; B + placebo (no ethanol), 40 mg./kg. oral, control = 100 ± 9.8): 108 ± 13.3%
- mortality at 336 h [1]: 0%
- Ethanolic narcosis period, control ± S.E. % ([2]; 0.3 mg./kg. orally): 65 ± 6.8%
- Ethanolic narcosis period, control ± S.E. % ([2]; 1.0 mg./kg. orally): 53 ± 4.7%
- Ethanolic narcosis period, control ± S.E. % ([2]; 10.0 mg./kg. orally): 49 ± 2.8%

Structure (SMILES): CCC(O)(c1ccc(OCCN(C(C)C)C(C)C)cc1)c1ccccc1C(F)(F)F (stereo not drawn) [Compound C, α-ethyl-α-(2-trifluoromethylphenyl)-4-[3-(di-isopropylamino)-ethoxy]-benzylalcohol]
- Perished animals (%) [4]: 0%
- Ethanolic narcosis period, control ± S.E. % ([2]; 40.0 mg./kg. orally): 62 ± 5.1%

Structure (SMILES): N[C@@H](CS)C(=O)O [L-cysteine, reference compound]
- alcoholic intoxication, i.e. narcosis period (in words) [5]: shortened
- mortality at 336 h [1]: 0%
- Ethanolic narcosis period, control ± S.E. % ([2]; 500.0 mg./kg. orally): 63 ± 4.2%

Structure (SMILES): CC(N)Cc1ccccc1 (centres unmarked) [amphetamine]
- motoric incoordination (ataxia) (in words) [6]: prolong the motoric incoordination (ataxia)
- narcotizing effect of alcohol (in words) [5]: moderate the narcotizing effect of alcohol

Structure (SMILES): Cn1c(=O)c2c(ncn2C)n(C)c1=O [caffeine]
- motoric incoordination (ataxia) (in words) [6]: prolong the motoric incoordination (ataxia)
- narcotizing effect of alcohol (in words) [5]: moderate the narcotizing effect of alcohol

Structure (SMILES): CC(N)(Cc1ccc(O)cc1)C(=O)O (stereo not drawn) [α-methyl-paratyrosine]
- spontaneous locomotoric activity (in words) ([7]; in the effective dose range): a decrease of the spontaneous locomotoric activity
- ethanolic locomotoric hyperactivity (in words) ([7]; mice): normalizes the ethanolic locomotoric hyperactivity
